Reference: patent publication US20260015350A1, “AZAQUINAZOLINE PAN-KRAS INHIBITORS” (Mirati Therapeutics, Inc., priority 2022, published 2026)

Experiments:
[1] = molecular target: T1, KRas^G12D (Homo sapiens, UniProt P01116, G12D); assay: KRas binding assay (TR-FRET tracer displacement), KRas G12D
T1 construct: Biotinylated KRas (corresponding to amino acids 1-169, produced at Accelegan Inc.); biotin (biotinylated); purchased Accelegan Inc

[2] = molecular target: T2, KRas^G12R (Homo sapiens, UniProt P01116, G12R); assay: KRas binding assay (TR-FRET tracer displacement), KRas G12R
T2 construct: Biotinylated KRas (corresponding to amino acids 1-169, produced at Accelegan Inc.); biotin (biotinylated); purchased Accelegan Inc
T2 sequence (P01116 1-169 isoform P01116-2 G12R): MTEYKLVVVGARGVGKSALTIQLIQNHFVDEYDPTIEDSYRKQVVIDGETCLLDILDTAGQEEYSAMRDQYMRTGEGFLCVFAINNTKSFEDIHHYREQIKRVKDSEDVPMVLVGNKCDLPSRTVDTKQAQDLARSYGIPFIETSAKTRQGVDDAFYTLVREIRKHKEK

[3] = molecular target: T3, KRas^G12V (Homo sapiens, UniProt P01116, G12V); assay: KRas binding assay (TR-FRET tracer displacement), KRas G12V
T3 construct: Biotinylated KRas (corresponding to amino acids 1-169, produced at Accelegan Inc.); biotin (biotinylated); purchased Accelegan Inc
T3 sequence (P01116 1-169 isoform P01116-2 G12V): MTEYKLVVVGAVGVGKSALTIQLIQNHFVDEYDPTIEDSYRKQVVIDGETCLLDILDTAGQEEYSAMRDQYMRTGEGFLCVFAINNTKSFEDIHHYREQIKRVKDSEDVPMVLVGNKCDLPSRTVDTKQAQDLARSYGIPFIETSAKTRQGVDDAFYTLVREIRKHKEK

[4] = test system: KRas-mediated phosphorylation of ERK in AsPC-1 cells; assay: Inhibition of KRas-mediated phosphorylation of ERK (Cisbio HTRF pERK), AsPC-1 cells; assay type: cell-based; conditions: HTRF pERK
Method in brief: (§1)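 Signal read by HTRF (d2/Cryptate antibody pair, 2 hr room-temperature incubation on lysate). Cells: 6,000 per well, 3 hr compound exposure. Titration: 10 uM highest, 3-fold, 10 points.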

[5] = test system: KRas-mediated phosphorylation of ERK in H727 cells; assay: Inhibition of KRas-mediated phosphorylation of ERK (Cisbio HTRF pERK), H727 cells; assay type: cell-based; conditions: HTRF pERK
Method in brief: as §1

[6] = Homo sapiens, ASPC1, AsPC-1 cells
[7] = Homo sapiens, NCI-H727, H727 cells

T1 sequence (P01116 1-169 isoform P01116-2 G12D): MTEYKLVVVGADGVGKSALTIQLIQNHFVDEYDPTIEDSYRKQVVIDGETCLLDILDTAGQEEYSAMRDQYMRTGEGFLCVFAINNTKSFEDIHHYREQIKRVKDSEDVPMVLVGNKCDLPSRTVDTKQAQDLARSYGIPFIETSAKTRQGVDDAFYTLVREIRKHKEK

SMILES	IC50 [1] [nM]	IC50 [2] [nM]	IC50 [3] [nM]	IC50 [4, 6] [nM]	IC50 [5, 7] [nM]	IC50 ([4]; AsPC-1 cells) [nM]	IC50 ([5]; H727 cells) [nM]
CCc1c(F)ccc2cc(O)cc(-c3ncc4c(N5C[C@@H]6[C@@H](CC#N)NC(=O)[C@@H]6C5)nc(OC[C@@]56CCCN5C[C@H](F)C6)nc4c3F)c12 [Example 606, 2-((1R,3aS,6aR)-5-(7-(8-ethyl-7-fluoro-3-hydroxynaphthalen-1-yl)-8-fluoro-2-(((2R,7aS)-2-fluorohexahydro-1H-pyrrolizin-7a-yl)methoxy)pyrido[4,3-d]pyrimidin-4-yl)-3-oxooctahydropyrrolo[3,4-c]pyrrol-1-yl) acetonitrile]	26	71	43	> 10000	> 10000	–	–
CCc1c(F)ccc2cc(O)cc(-c3ncc4c(N5CCC(CC6CCOC6)C5)nc(OC[C@@]56CCCN5C[C@H](F)C6)nc4c3F)c12 (stereo partly drawn) [Example 596, 5-ethyl-6-fluoro-4-(8-fluoro-2-(((2R,7aS)-2-fluorohexahydro-1H-pyrrolizin-7a-yl)methoxy)-4-(3-((tetrahydrofuran-3-yl)methyl)pyrrolidin-1-yl)pyrido[4,3-d]pyrimidin-7-yl)naphthalen-2-ol]	805	434	94	> 10000	2450	–	–
CCc1c(F)ccc2cc(O)cc(-c3ncc4c(N5CCn6ncc(C#N)c6C5)nc(OC[C@@]56CCCN5C[C@H](F)C6)nc4c3F)c12 [Example 865, 5-(7-(8-ethyl-7-fluoro-3-hydroxynaphthalen-1-yl)-8-fluoro-2-(((2R,7aS)-2-fluorotetrahydro-1H-pyrrolizin-7a(5H)-yl)methoxy)pyrido[4,3-d]pyrimidin-4-yl)-4,5,6,7-tetrahydropyrazolo[1,5-a]pyrazine-3-carbonitrile]	809	282	310	7700	> 10000	–	–
CCc1c(F)ccc2cc(O)cc(-c3ncc4c(NC5CCONC5)nc(OC[C@@]56CCCN5C[C@H](F)C6)nc4c3F)c12 (stereo partly drawn) [Example 542, 4-(4-((1,2-oxazinan-4-yl)amino)-8-fluoro-2-(((2R,7aS)-2-fluorohexahydro-1H-pyrrolizin-7a-yl)methoxy)pyrido[4,3-d]pyrimidin-7-yl)-5-ethyl-6-fluoronaphthalen-2-ol]	60	6	9	> 10000	2330	–	–
CCc1c(F)ccc2cc(O)cc(-c3ncc4c(N5CCCCC(P(C)(C)=O)C5)nc(OC[C@@]56CCCN5C[C@H](F)C6)nc4c3F)c12 (stereo partly drawn) [Example 627, (1-(7-(8-ethyl-7-fluoro-3-hydroxynaphthalen-1-yl)-8-fluoro-2-(((2R,7aS)-2-fluorohexahydro-1H-pyrrolizin-7a-yl)methoxy)pyrido[4,3-d]pyrimidin-4-yl)azepan-3-yl)dimethylphosphine oxide]	35	27	12	> 10000	4560	–	–
CCc1c(F)ccc2cc(O)cc(-c3ncc4c(N5C[C@@H]6[C@@H](C(F)(F)F)C[C@]6(CO)C5)nc(OC[C@@]56CCCN5C[C@H](F)C6)nc4c3F)c12 [Example 647, 5-ethyl-6-fluoro-4-(8-fluoro-2-(((2R,7aS)-2-fluorohexahydro-1H-pyrrolizin-7a-yl)methoxy)-4-((1R,5R,6S)-1-(hydroxymethyl)-6-(trifluoromethyl)-3-azabicyclo[3.2.0]heptan-3-yl)pyrido[4,3-d]pyrimidin-7-yl)naphthalen-2-ol]	1990	582	581	9340	> 10000	–	–
CCc1c(F)ccc2cc(O)cc(-c3ncc4c(N5CCC6CCCC5C6)nc(OC[C@@]56CCCN5C[C@H](F)C6)nc4c3F)c12 (stereo partly drawn) [Example 552, 4-(4-(2-azabicyclo[3.3.1]nonan-2-yl)-8-fluoro-2-(((2R,7aS)-2-fluorotetrahydro-1H-pyrrolizin-7a(5H)-yl)methoxy)pyrido[4,3-d]pyrimidin-7-yl)-5-ethyl-6-fluoronaphthalen-2-ol]	810	71	244	9330	5300	–	–
CCc1c(F)ccc2cc(O)cc(-c3ncc4c(N5CC6(CO)CC5CCO6)nc(OC[C@@]56CCCN5C[C@H](F)C6)nc4c3F)c12 (stereo partly drawn) [Example 572, 5-ethyl-6-fluoro-4-(8-fluoro-2-(((2R,7aS)-2-fluorohexahydro-1H-pyrrolizin-7a-yl)methoxy)-4-(1-(hydroxymethyl)-2-oxa-6-azabicyclo[3.2.1]octan-6-yl)pyrido[4,3-d]pyrimidin-7-yl)naphthalen-2-ol]	1970	162	266	> 10000	4190	–	–
CCc1c(F)ccc2cc(O)cc(-c3ncc4c(N5CCCC(S(=O)(=O)C(F)F)C5)nc(OC[C@@]56CCCN5C[C@H](F)C6)nc4c3F)c12 (stereo partly drawn) [Example 652, 4-(4-(3-((difluoromethyl)sulfonyl)piperidin-1-yl)-8-fluoro-2-(((2R,7aS)-2-fluorotetrahydro-1H-pyrrolizin-7a(5H)-yl)methoxy)pyrido[4,3-d]pyrimidin-7-yl)-5-ethyl-6-fluoronaphthalen-2-ol]	125	51	40	2280	1390	–	–
CCc1c(F)ccc2cc(O)cc(-c3ncc4c(NCC5CNC(=O)CO5)nc(OC[C@@]56CCCN5C[C@H](F)C6)nc4c3F)c12 (stereo partly drawn) [Example 556, 6-(((7-(8-ethyl-7-fluoro-3-hydroxynaphthalen-1-yl)-8-fluoro-2-(((2R,7aS)-2-fluorotetrahydro-1H-pyrrolizin-7a(5H)-yl)methoxy)pyrido[4,3-d]pyrimidin-4-yl)amino)methyl) morpholin-3-one]	10	< 2	2	> 10000	2510	–	–
CCc1c(F)ccc2cc(O)cc(-c3ncc4c(N5CCCC(C6CCNC6=O)C5)nc(OC[C@@]56CCCN5C[C@H](F)C6)nc4c3F)c12 (single isomer, unassigned) [Example 617]	9	4	4	–	–	1550	763
CCc1c(F)ccc2cc(O)cc(-c3ncc4c(N5CC6C(=O)NC(=O)C6C5)nc(OC[C@]56CCCN5[C@H](COC(=O)N(C)C)CC6)nc4c3F)c12 (stereo partly drawn) [Example 708, ((3S,7aR)-7a-(((4-(4,6-dioxohexahydropyrrolo[3,4-c]pyrrol-2(1H)-yl)-7-(8-ethyl-7-fluoro-3-hydroxynaphthalen-1-yl)-8-fluoropyrido[4,3-d]pyrimidin-2-yl)oxy)methyl)hexahydro-1H-pyrrolizin-3-yl)methyl dimethylcarbamate]	19900	39800	42900	> 10000	> 10000	–	–
CCc1c(F)ccc2cc(O)cc(-c3ncc4c(N5CC[C@@H]6C(=O)NC(=O)[C@@H]6CC5)nc(OC[C@@]56CCCN5C[C@H](F)C6)nc4c3F)c12 [Example 614, (3aR,8aS)-6-(7-(8-ethyl-7-fluoro-3-hydroxynaphthalen-1-yl)-8-fluoro-2-(((2R,7aS)-2-fluorohexahydro-1H-pyrrolizin-7a-yl)methoxy)pyrido[4,3-d]pyrimidin-4-yl)hexahydropyrrolo[3,4-d]azepine-1,3(2H,3aH)-dione]	805	701	398	> 10000	> 10000	–	–
